The values that follow come from US9580418B2, “Bicyclic aromatic carboxamide compounds useful as Pim kinase inhibitors” (Incyte Corporation, priority 2014, dated 2017).

SMILES strings stand for the structures.

In assay [1] the target is Pim-1 (Homo sapiens (Human), UniProt P11309). The assay can be described thus: Pim-1 kinase assay (Pim enzyme assays, Example A). Conditions: 1 mM ATP, BAD peptide substrate; read-out: PIM1 IC50. Type of assay: biochemical.
Assay [2] addresses Pim-2 (Homo sapiens (Human), UniProt Q9P1W9). The experiment in a line: Pim-2 kinase assay (Pim enzyme assays, Example A). In kind it is biochemical. Conditions: 1 mM ATP, CREBtide peptide substrate; read-out: PIM2 IC50.
In assay [3] the target is Pim-3 (Homo sapiens (Human), UniProt Q86V86). The assay can be described thus: Pim-3 kinase assay (Pim enzyme assays, Example A). Type of assay: biochemical. Conditions: 1 mM ATP, BAD peptide substrate; read-out: PIM3 IC50.
Assay [4] relates to pBAD in KMS.12.BM cells. The experiment in a line: Pim pBAD signaling assay in KMS.12.BM cells (Example B). Type of assay: cell-based. Conditions: Homo sapiens, 2.5 h incubation, pBAD ELISA. A general note: ELISA stands for enzyme-linked immunosorbent assay.

Broadly, the IC50 is the concentration needed to halve the response being measured.

Sequence of Pim-2 (Q9P1W9 whole entry): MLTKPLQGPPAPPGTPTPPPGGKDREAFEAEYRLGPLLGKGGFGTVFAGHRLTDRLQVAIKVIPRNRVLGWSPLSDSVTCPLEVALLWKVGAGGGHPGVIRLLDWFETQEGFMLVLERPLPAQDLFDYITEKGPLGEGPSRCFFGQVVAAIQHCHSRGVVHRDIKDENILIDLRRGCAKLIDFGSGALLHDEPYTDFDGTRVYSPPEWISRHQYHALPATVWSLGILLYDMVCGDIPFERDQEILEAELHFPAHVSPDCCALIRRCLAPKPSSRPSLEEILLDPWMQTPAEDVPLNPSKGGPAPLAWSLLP
Sequence of Pim-1 (P11309 whole entry): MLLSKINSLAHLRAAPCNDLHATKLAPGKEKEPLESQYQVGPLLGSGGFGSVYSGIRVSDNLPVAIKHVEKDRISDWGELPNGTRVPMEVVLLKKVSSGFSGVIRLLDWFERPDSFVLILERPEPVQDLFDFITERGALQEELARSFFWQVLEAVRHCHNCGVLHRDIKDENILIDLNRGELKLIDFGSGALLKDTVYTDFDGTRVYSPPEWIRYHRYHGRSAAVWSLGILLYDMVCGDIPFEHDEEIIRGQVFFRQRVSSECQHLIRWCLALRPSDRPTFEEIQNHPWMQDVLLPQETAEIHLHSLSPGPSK

Regarding `C[C@H]1CN(c2ccncc2NC(=O)c2ccc3ccc(N4CCC(c5ccncc5)CC4)cc3n2)C[C@@H](N)[C@@H]1O` [Example 20, N-{4-[(3R,4R,5S)-3-Amino-4-hydroxy-5-methylpiperidin-1-yl]pyridin-3-yl}-7-(4-pyridin-4-ylpiperidin-1-yl)quinoline-2-carboxamide], the IC50 was at most 10 nM in assay [1], at most 100 nM in assay [2], at most 10 nM in assay [3] and 50 to 250 nM in assay [4].

Consider `C[C@H]1CN(c2ccncc2NC(=O)c2ccc3ccc(N4CCC5(CCOCC5)CC4)cc3n2)C[C@@H](N)[C@@H]1O` [Example 14, N-{4-[(3R,4R,5S)-3-Amino-4-hydroxy-5-methylpiperidin-1-yl]pyridin-3-yl}-7-(3-oxa-9-azaspiro[5.5]undec-9-yl)quinoline-2-carboxamide], for which the IC50 in assay [1] was at most 10 nM; in assay [2], at most 100 nM; in assay [3], at most 10 nM; in assay [4] it was 50 to 250 nM.

On to `C[C@H]1CN(c2ccncc2NC(=O)c2ccc3ccc(N4CCOCC4)cc3n2)C[C@@H](N)[C@@H]1O` [Example 12, N-{4-[(3R,4R,5S)-3-Amino-4-hydroxy-5-methylpiperidin-1-yl]pyridin-3-yl}-7-morpholin-4-ylquinoline-2-carboxamide], for which the IC50 was at most 10 nM in assay [1], at most 100 nM in assay [2], at most 10 nM in assay [3] and at most 50 nM in assay [4].

Consider `C[C@@H]1C[C@H](N)CN(c2ccncc2NC(=O)c2ccc3ccc(N4CCC4)cc3n2)C1` [Example 34, N-{4-[(3S,5R)-3-Amino-5-methylpiperidin-1-yl]pyridin-3-yl}-7-azetidin-1-ylquinoline-2-carboxamide], for which the IC50 in assay [1] is at most 10 nM; in assay [2], at most 100 nM; in assay [3], at most 10 nM; in assay [4], 50 to 250 nM.

Regarding `CCN1CCN(c2ccc3ccc(C(=O)Nc4cnccc4N4C[C@H](C)C[C@H](N)C4)nc3c2)CC1=O` [Example 23, N-{4-[(3S,5R)-3-Amino-5-methylpiperidin-1-yl]pyridin-3-yl}-7-(4-ethyl-3-oxopiperazin-1-yl)quinoline-2-carboxamide], the IC50 in assay [1] was at most 10 nM; in assay [2], at most 100 nM; in assay [3], at most 10 nM; in assay [4], at most 50 nM.
